According to patent US5290790A, “4-(4-imidazolyl) piperidines substituted at position 1, their preparation and also their therapeutic applications” (National De La Sante et De La Recherche Medicale, priority 1990, dated 1994):
Counter-ions that a name gives are not always drawn. Like-named read-outs stand apart in the source and are kept apart here.

Columns and labels:
[1] = biological target: T1, H3 histaminergic receptors (Rattus norvegicus, UniProt Q9QYN8); test: Reversal by H3 antagonists of exogenous histamine-induced inhibition of histamine release in sections of rat cerebral cortex (Arrang et al.); format: biochemical
Excerpt: This method employs sections of rat cerebral cortex, and made possible the pharmacological characterisation of the H3 receptors (Nature, 1987, 327; 117-123).
This effect is progressively reversed in the presence of H3 antagonists such as the compounds of the invention, added at increasing concentrations. […]

[2] = biological target: T1, H3 histaminergic receptors; conditions: histamine at a concentration of 1 μM; cited from earlier work
[3] = read-out: Apparent dissociation constant (Ki) as histamine antagonists at receptors of rat brain, sections of rat cerebral cortex, exogenous histamine 1 μM, apparent Ki calculated from IC50 according to Cheng and Prusoff with histamine EC=0.1 μM

T1 sequence (Q9QYN8 whole entry): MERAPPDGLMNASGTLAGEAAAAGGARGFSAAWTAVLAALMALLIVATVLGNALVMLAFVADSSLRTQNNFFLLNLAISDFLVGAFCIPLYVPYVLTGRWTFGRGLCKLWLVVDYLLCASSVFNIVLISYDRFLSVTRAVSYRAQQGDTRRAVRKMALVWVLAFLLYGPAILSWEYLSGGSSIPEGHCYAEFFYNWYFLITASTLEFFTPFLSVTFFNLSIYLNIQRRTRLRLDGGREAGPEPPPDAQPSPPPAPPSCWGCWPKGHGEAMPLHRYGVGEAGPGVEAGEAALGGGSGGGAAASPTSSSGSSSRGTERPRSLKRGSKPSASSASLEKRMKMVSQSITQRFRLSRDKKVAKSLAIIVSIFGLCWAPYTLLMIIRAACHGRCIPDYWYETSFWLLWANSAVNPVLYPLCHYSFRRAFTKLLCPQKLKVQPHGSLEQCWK

| Structure (SMILES) | Ki [1] [nM] | also measured |
| --- | --- | --- |
| CCCCCCC(=O)N1CCC(c2cnc[nH]2)CC1 [Compound 1] | 48 |  |
| O=C(N1CCC(c2c[nH]cn2)CC1)C12CC3CC(CC(C3)C1)C2 [Compound 8] |  | Ki [1, 3]: 63 nM |
| O=C(C1CC1c1ccccc1)N1CCC(c2c[nH]cn2)CC1 (centres unmarked) [Compound 13] | 20 |  |
| O=C(CC1CCC1)N1CCC(c2c[nH]cn2)CC1 [Compound 20] | 59 |  |
| O=C(CC1CC2CCC1C2)N1CCC(c2c[nH]cn2)CC1 (centres unmarked) [Compound 23, 1-(Norbornylmethylcarbonyl)-4-(1H-imidazol-4-yl)piperidine] | 23 |  |
| O=C(CCc1ccccc1)N1CCC(c2c[nH]cn2)CC1 [Compound 38, 1-(3-Phenylpropionyl)-4-(1H-imidazol-4-yl)piperidine (Oxalate)] | 84 |  |
| O=C(CCCc1cccs1)N1CCC(c2c[nH]cn2)CC1 [Compound 43] | 35 |  |
| O=C(CCCCCCc1ccccc1)N1CCC(c2c[nH]cn2)CC1 [Compound 48] | 65 |  |
| OC(=CCCc1ccccc1)N1CCC(c2c[nH]cn2)CC1 [Compound 59, 1-(1-Hydroxy-4-phenyl-1-buten-1-yl)-4-(4-imidazolyl)piperidine (Dihydrochloride)] | 47 |  |
| OC(=CCCCCCCCCCOc1ccccc1)N1CCC(c2c[nH]cn2)CC1 [Compound 60, 1-(1-Hydroxy-11-phenoxy-1-undecen-1-yl)-4-(4-imidazolyl)piperidine (dihydrochloride)] | 120 |  |
| O=C(NCCC1CCCCC1)N1CCC(c2c[nH]cn2)CC1 [Compound 77] | 68 |  |
| O=C(NCCCc1ccccc1)N1CCC(c2c[nH]cn2)CC1 [Compound 83] | 77 |  |
| O=C(CCCOc1ccccc1)N1CCC(c2cn(C(=O)Nc3ccc(Cl)cc3Cl)cn2)CC1 [Compound 92, 1-(4-Phenoxybutylryl)-4-[1-(2,4-Dichlorophenylaminocarbonyl)-4-imidazolyl]piperidine] |  | Ki [1, 3]: 34 nM |
| NCCc1c[nH]cn1 [histamine] |  | Inhibition of release by exogenous histamine [2]: approximately 50% |
